Data from US10165776B2, “Substituted pyrazolylpyrazole derivative and use of same as herbicide” (KYOYU AGRI CO., LTD., priority 2015, dated 2019).

The compounds below were run on Chenopodium album (assay: Farming soil treatment test). Details: 5 g a.i./10 a; soil surface spray prior to weed growth; 30 days at 30° C.
Format: in vivo
Experimental: (§1) Field soil was filled into a 1/6000 are pot followed by seeding with Digitaria ciliaris, Chenopodium album and Amaranthus retroflexus and covering with soil. Wettable powders of compounds of formula (I) shown in Table 1 prepared in compliance with the preparation examples were diluted with water to the prescribed amount of chemical and uniformly sprayed onto each soil surface layer using 100 liters of sprayed water per 10 are prior to weed growth following seeding. After treating for 30 days in a glass greenhouse at an average atmospheric temperature of 30° C., the herbicidal efficacy thereof was investigated. Evaluation of herbicidal efficacy was carried out in the same manner as the above-mentioned Test Example 1.

Row | SMILES | herbicidal efficacy, Chenopodium album
1 | Cc1cccc(CC(=O)Nc2c(C#N)cnn2-c2nn3c(c2Cl)CCCC3)c1 [Compound 9] | 9 (9: 90% to less than 100%)
2 | Cc1ccccc1CC(=O)Nc1c(C#N)cnn1-c1nn2c(c1Cl)CCCC2 [Compound 6] | 9 (9: 90% to less than 100%)

Same assay, conditions: 10 g a.i./10 a; soil surface spray prior to weed growth; 30 days at 30° C.

Row | SMILES | herbicidal efficacy, Chenopodium album
3 | Cc1cccc(CC(=O)Nc2c(C#N)cnn2-c2nn3c(c2Cl)CCCC3)c1 [Compound 9] | 10 (10: 100%)
4 | Cc1ccccc1CC(=O)Nc1c(C#N)cnn1-c1nn2c(c1Cl)CCCC2 [Compound 6] | 10 (10: 100%)

The compounds below were run on Amaranthus retroflexus (assay: Farming soil treatment test). Details: 5 g a.i./10 a; soil surface spray prior to weed growth; 30 days at 30° C.
Format: in vivo
Experimental: as §1

Row | SMILES | herbicidal efficacy, Amaranthus retroflexus
5 | Cc1cccc(CC(=O)Nc2c(C#N)cnn2-c2nn3c(c2Cl)CCCC3)c1 [Compound 9] | 9 (9: 90% to less than 100%)
6 | Cc1ccccc1CC(=O)Nc1c(C#N)cnn1-c1nn2c(c1Cl)CCCC2 [Compound 6] | 9 (9: 90% to less than 100%)

Same assay, conditions: 10 g a.i./10 a; soil surface spray prior to weed growth; 30 days at 30° C.

Row | SMILES | herbicidal efficacy, Amaranthus retroflexus
7 | Cc1cccc(CC(=O)Nc2c(C#N)cnn2-c2nn3c(c2Cl)CCCC3)c1 [Compound 9] | 10 (10: 100%)
8 | Cc1ccccc1CC(=O)Nc1c(C#N)cnn1-c1nn2c(c1Cl)CCCC2 [Compound 6] | 9 (9: 90% to less than 100%)

The compounds below were run on Digitaria ciliaris (assay: Farming soil treatment test). Details: 5 g a.i./10 a; soil surface spray prior to weed growth; 30 days at 30° C.
Format: in vivo
Experimental: as §1

Row | SMILES | herbicidal efficacy, Digitaria ciliaris
9 | Cc1cccc(CC(=O)Nc2c(C#N)cnn2-c2nn3c(c2Cl)CCCC3)c1 [Compound 9] | 9 (9: 90% to less than 100%)
10 | Cc1ccccc1CC(=O)Nc1c(C#N)cnn1-c1nn2c(c1Cl)CCCC2 [Compound 6] | 9 (9: 90% to less than 100%)

Same assay, conditions: 10 g a.i./10 a; soil surface spray prior to weed growth; 30 days at 30° C.

Row | SMILES | herbicidal efficacy, Digitaria ciliaris
11 | Cc1cccc(CC(=O)Nc2c(C#N)cnn2-c2nn3c(c2Cl)CCCC3)c1 [Compound 9] | 9 (9: 90% to less than 100%)
12 | Cc1ccccc1CC(=O)Nc1c(C#N)cnn1-c1nn2c(c1Cl)CCCC2 [Compound 6] | 9 (9: 90% to less than 100%)

The compounds below were run on Oryza sativa (assay: Paddy herbicidal activity test, phytotoxicity to transplanted rice). Details: 1 g a.i./10 a; rice transplanted at 2.0 leaf stage; 30 days at 30° C.
Format: in vivo
Experimental: (§2) Rice paddy soil was filled into a 1/10000 are pot followed by the addition of suitable amounts of water and chemical fertilizer, kneading, seeding with Echinochloa crus-galli, Monochoria vaginalis and Scirpus juncoides and maintaining in an irrigated state at a water depth of 3 cm. Wettable powders of Target Compound (I) shown in Table 1 prepared in compliance with the preparation examples were diluted with a suitable amount of water, rice plants in the 2.0 leaf stage were transplanted during 3.5 leaf stage of Echinochloa crus-galli, and treated by dropping in chemical in the prescribed amount per 10 are using a pipette. After treating for 30 days in a glass greenhouse at an average atmospheric temperature of 30° C., the herbicidal efficacy thereof was investigated. Evaluation of herbicidal efficacy was carried out by comparing growth inhibition rate (%) with an untreated group, while evaluation of phytotoxicity was carried out by comparing growth inhibition rate (%) with the state of a complete eradication group, and were evaluated at 11 levels indicated below.

Row | SMILES | phytotoxicity, Oryza sativa
13 | Cc1cccc(CC(=O)Nc2c(C#N)cnn2-c2nn3c(c2Cl)CCCC3)c1 [Compound 9] | 0 (0 (exponent): 0% to less than 10% (growth inhibition rate))
14 | Cc1ccccc1CC(=O)Nc1c(C#N)cnn1-c1nn2c(c1Cl)CCCC2 [Compound 6] | 1 (1: 10% to less than 20%)

Same assay, conditions: 5 g a.i./10 a; rice transplanted at 2.0 leaf stage; 30 days at 30° C.

Row | SMILES | phytotoxicity, Oryza sativa
15 | Cc1cccc(CC(=O)Nc2c(C#N)cnn2-c2nn3c(c2Cl)CCCC3)c1 [Compound 9] | 0 (0 (exponent): 0% to less than 10% (growth inhibition rate))
16 | Cc1ccccc1CC(=O)Nc1c(C#N)cnn1-c1nn2c(c1Cl)CCCC2 [Compound 6] | 1 (1: 10% to less than 20%)

Each compound was assayed on Monochoria vaginalis (assay: Paddy herbicidal activity test). Details: 1 g a.i./10 a; irrigated pot, treated at 3.5 leaf stage of Echinochloa crus-galli; 30 days at 30° C.
Format: in vivo
Experimental: as §2

Row | SMILES | herbicidal efficacy, Monochoria vaginalis
17 | Cc1cccc(CC(=O)Nc2c(C#N)cnn2-c2nn3c(c2Cl)CCCC3)c1 [Compound 9] | 9 (9: 90% to less than 100%)
18 | Cc1ccccc1CC(=O)Nc1c(C#N)cnn1-c1nn2c(c1Cl)CCCC2 [Compound 6] | 10 (10: 100%)

Same assay, conditions: 5 g a.i./10 a; irrigated pot, treated at 3.5 leaf stage of Echinochloa crus-galli; 30 days at 30° C.

Row | SMILES | herbicidal efficacy, Monochoria vaginalis
19 | Cc1cccc(CC(=O)Nc2c(C#N)cnn2-c2nn3c(c2Cl)CCCC3)c1 [Compound 9] | 10 (10: 100%)
20 | Cc1ccccc1CC(=O)Nc1c(C#N)cnn1-c1nn2c(c1Cl)CCCC2 [Compound 6] | 10 (10: 100%)

What follows are compounds tested on Echinochloa crus-galli (assay: Paddy herbicidal activity test). Details: 1 g a.i./10 a; irrigated pot, treated at 3.5 leaf stage of Echinochloa crus-galli; 30 days at 30° C.
Format: in vivo
Experimental: as §2

Row | SMILES | herbicidal efficacy, Echinochloa crus-galli
21 | Cc1cccc(CC(=O)Nc2c(C#N)cnn2-c2nn3c(c2Cl)CCCC3)c1 [Compound 9] | 9 (9: 90% to less than 100%)
22 | Cc1ccccc1CC(=O)Nc1c(C#N)cnn1-c1nn2c(c1Cl)CCCC2 [Compound 6] | 10 (10: 100%)

Same assay, conditions: 5 g a.i./10 a; irrigated pot, treated at 3.5 leaf stage of Echinochloa crus-galli; 30 days at 30° C.

Row | SMILES | herbicidal efficacy, Echinochloa crus-galli
23 | Cc1cccc(CC(=O)Nc2c(C#N)cnn2-c2nn3c(c2Cl)CCCC3)c1 [Compound 9] | 9 (9: 90% to less than 100%)
24 | Cc1ccccc1CC(=O)Nc1c(C#N)cnn1-c1nn2c(c1Cl)CCCC2 [Compound 6] | 10 (10: 100%)

What follows are compounds tested on Scirpus juncoides (assay: Paddy herbicidal activity test). Details: 1 g a.i./10 a; irrigated pot, treated at 3.5 leaf stage of Echinochloa crus-galli; 30 days at 30° C.
Format: in vivo
Experimental: as §2

Row | SMILES | herbicidal efficacy, Scirpus juncoides
25 | Cc1cccc(CC(=O)Nc2c(C#N)cnn2-c2nn3c(c2Cl)CCCC3)c1 [Compound 9] | 9 (9: 90% to less than 100%)
26 | Cc1ccccc1CC(=O)Nc1c(C#N)cnn1-c1nn2c(c1Cl)CCCC2 [Compound 6] | 10 (10: 100%)

Same assay, conditions: 5 g a.i./10 a; irrigated pot, treated at 3.5 leaf stage of Echinochloa crus-galli; 30 days at 30° C.

Row | SMILES | herbicidal efficacy, Scirpus juncoides
27 | Cc1cccc(CC(=O)Nc2c(C#N)cnn2-c2nn3c(c2Cl)CCCC3)c1 [Compound 9] | 9 (9: 90% to less than 100%)
28 | Cc1ccccc1CC(=O)Nc1c(C#N)cnn1-c1nn2c(c1Cl)CCCC2 [Compound 6] | 10 (10: 100%)

What follows are compounds tested on Galinsoga parviflora (assay: Weed foliar treatment test (Test 4, 4.0 to 5.0 leaf stage)). Details: 10 g a.i./10 a; foliar spray at 4.0 to 5.0 leaf stage of Digitaria ciliaris (plant height 10 cm to 15 cm); 20 days at 25° C.
Format: in vivo
Experimental: (§3) Field soil was filled into a 1/4500 are pot followed by seeding with Digitaria ciliaris and Galinsoga parviflora, covering with soil and cultivating in a glass greenhouse at an average atmospheric temperature of 25° C. Wettable powders of Target Compound (I) shown in Table 1 prepared in compliance with the preparation examples were diluted with water to the prescribed amount of chemical and uniformly sprayed onto the weeds using 100 liters of sprayed water per 10 are when Digitaria ciliaris had grown to the 4.0 to 5.0 leaf stage (plant height: 10 cm to 15 cm). After treating for 20 days in a glass greenhouse at an average atmospheric temperature of 25° C., the herbicidal efficacy thereof was investigated. Evaluation of herbicidal efficacy was carried out in the same manner as the above-mentioned Test Example 1.

Row | SMILES | herbicidal efficacy, Galinsoga parviflora
29 | Cc1cccc(CC(=O)Nc2c(C#N)cnn2-c2nn3c(c2Cl)CCCC3)c1 [Compound 9] | 10 (10: 100%)
30 | Cc1ccccc1CC(=O)Nc1c(C#N)cnn1-c1nn2c(c1Cl)CCCC2 [Compound 6] | 10 (10: 100%)

What follows are compounds tested on Digitaria ciliaris in the same assay as above. Details: 10 g a.i./10 a; foliar spray at 4.0 to 5.0 leaf stage of Digitaria ciliaris (plant height 10 cm to 15 cm); 20 days at 25° C.
Format: in vivo
Experimental: as §3

Row | SMILES | herbicidal efficacy, Digitaria ciliaris
31 | Cc1cccc(CC(=O)Nc2c(C#N)cnn2-c2nn3c(c2Cl)CCCC3)c1 [Compound 9] | 10 (10: 100%)
32 | Cc1ccccc1CC(=O)Nc1c(C#N)cnn1-c1nn2c(c1Cl)CCCC2 [Compound 6] | 10 (10: 100%)

The compounds below were run on Chenopodium album (assay: Weed foliar treatment test (Test 3, 1.0 to 2.0 leaf stage)). Details: 5 g a.i./10 a; foliar spray at 1.0 to 2.0 leaf stage of Digitaria ciliaris; 3 weeks at 25° C.
Format: in vivo
Experimental: (§4) Soil was filled into a 1/6000 are pot followed by seeding with Digitaria ciliaris, Chenopodium album and Amaranthus retroflexus, covering with soil, and cultivating in a glass greenhouse at an average atmospheric temperature of 25° C. Wettable powders of Target Compound (I) shown in Table 1 prepared in compliance with the preparation examples were diluted with water to the prescribed amount of chemical and uniformly sprayed onto the weeds using 150 liters of sprayed water per 10 are when Digitaria ciliaris had grown to the 1.0 to 2.0 leaf stage. After treating for 3 weeks in a glass greenhouse at an average atmospheric temperature of 25° C., the herbicidal efficacy thereof was investigated. Evaluation of herbicidal efficacy was carried out in the same manner as the above-mentioned Test Example 1.

Row | SMILES | herbicidal efficacy, Chenopodium album
33 | Cc1cccc(CC(=O)Nc2c(C#N)cnn2-c2nn3c(c2Cl)CCCC3)c1 [Compound 9] | 10 (10: 100%)
34 | Cc1ccccc1CC(=O)Nc1c(C#N)cnn1-c1nn2c(c1Cl)CCCC2 [Compound 6] | 10 (10: 100%)

Same assay, conditions: 10 g a.i./10 a; foliar spray at 1.0 to 2.0 leaf stage of Digitaria ciliaris; 3 weeks at 25° C.

Row | SMILES | herbicidal efficacy, Chenopodium album
35 | Cc1cccc(CC(=O)Nc2c(C#N)cnn2-c2nn3c(c2Cl)CCCC3)c1 [Compound 9] | 10 (10: 100%)
36 | Cc1ccccc1CC(=O)Nc1c(C#N)cnn1-c1nn2c(c1Cl)CCCC2 [Compound 6] | 10 (10: 100%)

Each compound was assayed on Amaranthus retroflexus in the same assay as above. Details: 5 g a.i./10 a; foliar spray at 1.0 to 2.0 leaf stage of Digitaria ciliaris; 3 weeks at 25° C.
Format: in vivo
Experimental: as §4

Row | SMILES | herbicidal efficacy, Amaranthus retroflexus
37 | Cc1cccc(CC(=O)Nc2c(C#N)cnn2-c2nn3c(c2Cl)CCCC3)c1 [Compound 9] | 10 (10: 100%)
38 | Cc1ccccc1CC(=O)Nc1c(C#N)cnn1-c1nn2c(c1Cl)CCCC2 [Compound 6] | 10 (10: 100%)

Same assay, conditions: 10 g a.i./10 a; foliar spray at 1.0 to 2.0 leaf stage of Digitaria ciliaris; 3 weeks at 25° C.

Row | SMILES | herbicidal efficacy, Amaranthus retroflexus
39 | Cc1cccc(CC(=O)Nc2c(C#N)cnn2-c2nn3c(c2Cl)CCCC3)c1 [Compound 9] | 10 (10: 100%)
40 | Cc1ccccc1CC(=O)Nc1c(C#N)cnn1-c1nn2c(c1Cl)CCCC2 [Compound 6] | 10 (10: 100%)

Each compound was assayed on Digitaria ciliaris in the same assay as above. Details: 5 g a.i./10 a; foliar spray at 1.0 to 2.0 leaf stage of Digitaria ciliaris; 3 weeks at 25° C.
Format: in vivo
Experimental: as §4

Row | SMILES | herbicidal efficacy, Digitaria ciliaris
41 | Cc1cccc(CC(=O)Nc2c(C#N)cnn2-c2nn3c(c2Cl)CCCC3)c1 [Compound 9] | 10 (10: 100%)
42 | Cc1ccccc1CC(=O)Nc1c(C#N)cnn1-c1nn2c(c1Cl)CCCC2 [Compound 6] | 10 (10: 100%)

Same assay, conditions: 10 g a.i./10 a; foliar spray at 1.0 to 2.0 leaf stage of Digitaria ciliaris; 3 weeks at 25° C.

Row | SMILES | herbicidal efficacy, Digitaria ciliaris
43 | Cc1cccc(CC(=O)Nc2c(C#N)cnn2-c2nn3c(c2Cl)CCCC3)c1 [Compound 9] | 10 (10: 100%)
44 | Cc1ccccc1CC(=O)Nc1c(C#N)cnn1-c1nn2c(c1Cl)CCCC2 [Compound 6] | 10 (10: 100%)
